{
  "source": "patent US5545629A",
  "about": "“5-ethoxy-2'-deoxyuridines” (Montefiore Medical Center, priority 1994, dated 1996)",
  "key": {"HT-29 cells": {"tested_on": "HT-29 cells", "assay": "growth inhibition of HT-29 cells, 6 days, sulforhodamine B staining", "assay_type": "cell-based, human", "settings": "for pIC50: HT-29, 6 days, sulforhodamine B", "protocol": "The growth inhibitory effect of 5-ethoxy-2'-deoxyuridine was compared with other analogous 5-substituted-2'-deoxyuridine compounds by determining the IC50 of each compound in an assay which measured the growth inhibition of HT-29 cells. The HT-29 cells were placed in 96 well plates (2×10^4 cells per well) in RPMI 1640 with 10% added fetal bovine serum. After allowing the cells to attach overnight, several concentrations of the test compounds were added. After 6 days, cell numbers were quantitated by staining with sulforhodamine B (Skehan et al., J. Natl. Canc. Inst, 82, 1107-1112, 1990)."}, "[1]": {"tested_on": "HT-29 human carcinoma cells", "assay": "in vitro clonogenic assay (cloning efficiency) with HT-29 cells, 72 h drug exposure", "assay_type": "cell-based", "settings": "for pIC50: read-out: IC50 for 5-fluorouracil (50% reduction of cloning efficiency)", "protocol": "For assessment of the antitumor activity of 5-ethoxy-2'-deoxyuridine, an in vitro clonogenic assay was used. The assay was based on a modification of procedures first described by Puck and Marcus (Proc. Natl. Acad. Sci. (USA) 41:432-437, 1955). […] 3:225-231, 1991; A. F. Sobrero et al., J. Natl. Cancer Inst. 85:1937-1944, 1993).\nHT-29 human carcinoma cells (ATCC No. HTB-38) were maintained in RPMI 1640 with 10% v/v fetal bovine serum (GIBCO) in a humidified, 5% CO2 atmosphere at 37° C. Cells were plated in 24 well plates (150 cells per well) in RPMI 1640 medium with 10% v/v dialyzed fetal bovine serum. After allowing cell attachment to proceed overnight, combinations of interferon-α (500 units/ml; Roferon-A, Roche Labs.), 5-ethoxy-2'-deoxyuridine (150 μM), in the presence of increasing concentrations of 5-fluorouracil (as specified in the Table) were added. The various agents were diluted in phosphate-buffered saline, and control wells received vehicle alone. After 72 hours, drug containing medium was removed and replaced with RPMI 1640 with 10% v/v fetal bovine serum. Cell colonies were allowed to grow for an additional 7-10 days, at which point they were stained and counted. […] Data are means of at least 3 determinations. The IC50 values for 5-fluorouracil were calculated graphically by determining the concentration of 5-fluorouracil that reduced cloning efficiency by 50% from the cloning efficiency value measured in the absence of 5-fluorouracil."}},
  "note": "pIC50: −log10 of the molar value. Read-outs that look alike come from different tables or passages of the source.",
  "data": [
    {"molecule": "5-propynyloxy-2'-deoxyuridine", "values": [
      {"measurement": "pIC50", "setting": "HT-29 cells", "result": "< 2.52"}
    ]},
    {"molecule": "O=c1[nH]cc(F)c(=O)[nH]1", "note": "[5-FU, 5-fluorouracil]", "values": [
      {"measurement": "Cloning Efficiency (% of control)", "setting": "[1]; 5-FU 0.025 μM with 5-ETH 150 μM + IFN 500 u/ml, 4320 min", "result": "89 % of control"},
      {"measurement": "Cloning Efficiency (% of control)", "setting": "[1]; 5-FU 0.05 μM with 5-ETH 150 μM + IFN 500 u/ml, 4320 min", "result": "81 % of control"},
      {"measurement": "Cloning Efficiency (% of control)", "setting": "[1]; 5-FU 0.05 μM with 5-ETH 150 μM, 4320 min", "result": "81 % of control"},
      {"measurement": "Cloning Efficiency (% of control)", "setting": "[1]; 5-FU 0.10 μM with 5-ETH 150 μM + IFN 500 u/ml, 4320 min", "result": "38 % of control"},
      {"measurement": "Cloning Efficiency (% of control)", "setting": "[1]; 5-FU 0.10 μM with 5-ETH 150 μM, 4320 min", "result": "80 % of control"},
      {"measurement": "Cloning Efficiency (% of control)", "setting": "[1]; 5-FU 0.15 μM with 5-ETH 150 μM + IFN 500 u/ml, 4320 min", "result": "9 % of control"},
      {"measurement": "Cloning Efficiency (% of control)", "setting": "[1]; 5-FU 0.25 μM with 5-ETH 150 μM + IFN 500 u/ml, 4320 min", "result": "0 % of control"},
      {"measurement": "Cloning Efficiency (% of control)", "setting": "[1]; 5-FU 0.25 μM with 5-ETH 150 μM, 4320 min", "result": "60 % of control"},
      {"measurement": "Cloning Efficiency (% of control)", "setting": "[1]; 5-FU 0.25 μM with IFN 500 u/ml, 4320 min", "result": "97 % of control"},
      {"measurement": "Cloning Efficiency (% of control)", "setting": "[1]; 5-FU 0.50 μM with 5-ETH 150 μM, 4320 min", "result": "38 % of control"},
      {"measurement": "Cloning Efficiency (% of control)", "setting": "[1]; 5-FU 0.50 μM with IFN 500 u/ml, 4320 min", "result": "83 % of control"},
      {"measurement": "Cloning Efficiency (% of control)", "setting": "[1]; 5-FU 1.0 μM with 5-ETH 150 μM, 4320 min", "result": "13 % of control"},
      {"measurement": "Cloning Efficiency (% of control)", "setting": "[1]; 5-FU 1.0 μM with IFN 500 u/ml, 4320 min", "result": "56 % of control"},
      {"measurement": "Cloning Efficiency (% of control)", "setting": "[1]; 5-FU 1.5 μM with 5-ETH 150 μM, 4320 min", "result": "4 % of control"},
      {"measurement": "Cloning Efficiency (% of control)", "setting": "[1]; 5-FU 1.5 μM with IFN 500 u/ml, 4320 min", "result": "18 % of control"},
      {"measurement": "Cloning Efficiency (% of control)", "setting": "[1]; 5-FU 2.0 μM with IFN 500 u/ml, 4320 min", "result": "8 % of control"},
      {"measurement": "Cloning Efficiency (% of control)", "setting": "[1]; 5-FU 3.0 μM with IFN 500 u/ml", "result": "1 % of control"},
      {"measurement": "pIC50", "setting": "[1]; Homo sapiens, HT-29, 72 h, 5-FU alone (CONT, PBS)", "result": 5.70},
      {"measurement": "pIC50", "setting": "[1]; Homo sapiens, HT-29, 72 h, 5-FU with 5-ETH 150 μM + IFN 500 u/ml", "result": 7.10},
      {"measurement": "pIC50", "setting": "[1]; Homo sapiens, HT-29, 72 h, 5-FU with 5-ETH 150 μM", "result": 6.46},
      {"measurement": "pIC50", "setting": "[1]; Homo sapiens, HT-29, 72 h, 5-FU with IFN 500 u/ml", "result": 5.96},
      {"measurement": "activity at 0.25 µM", "setting": "[1]; Homo sapiens, HT-29, 72 h, 5-FU 0.25 μM alone (CONT, PBS), read-out: Cloning Efficiency (% of control)", "result": 104, "unit": "%"},
      {"measurement": "activity at 0.5 µM", "setting": "[1]; Homo sapiens, HT-29, 72 h, 5-FU 0.50 μM alone (CONT, PBS), read-out: Cloning Efficiency (% of control)", "result": 93, "unit": "%"},
      {"measurement": "activity at 1 µM", "setting": "[1]; Homo sapiens, HT-29, 72 h, 5-FU 1.0 μM alone (CONT, PBS), read-out: Cloning Efficiency (% of control)", "result": 87, "unit": "%"},
      {"measurement": "activity at 1.5 µM", "setting": "[1]; Homo sapiens, HT-29, 72 h, 5-FU 1.5 μM alone (CONT, PBS), read-out: Cloning Efficiency (% of control)", "result": 60, "unit": "%"},
      {"measurement": "activity at 2 µM", "setting": "[1]; Homo sapiens, HT-29, 72 h, 5-FU 2.0 μM alone (CONT, PBS), read-out: Cloning Efficiency (% of control)", "result": 55, "unit": "%"},
      {"measurement": "activity at 3 µM", "setting": "[1]; Homo sapiens, HT-29, 72 h, 5-FU 3.0 μM alone (CONT, PBS), read-out: Cloning Efficiency (% of control)", "result": 27, "unit": "%"},
      {"measurement": "activity at 4 µM", "setting": "[1]; Homo sapiens, HT-29, 72 h, 5-FU 4.0 μM alone (CONT, PBS), read-out: Cloning Efficiency (% of control)", "result": 5, "unit": "%"}
    ]},
    {"molecule": "CCOc1cn([C@H]2C[C@H](O)[C@@H](CO)O2)c(=O)[nH]c1=O", "note": "[5-ethoxy-2'-deoxyuridine]", "values": [
      {"measurement": "toxicity relative to the ethyl analog", "setting": "HT-29 cells; HT-29 cytotoxicity, fraction of the toxicity of the ethyl analog", "result": "about 1/300"},
      {"measurement": "toxicity relative to the methyloxy analog", "setting": "HT-29 cells; HT-29 cytotoxicity, fraction of the toxicity of the methyloxy analog", "result": "about 1/27"},
      {"measurement": "toxicity relative to the propyloxy analog", "setting": "HT-29 cells; HT-29 cytotoxicity, fraction of the toxicity of the propyloxy analog", "result": "about 1/2"},
      {"measurement": "pIC50", "setting": "HT-29 cells; Homo sapiens, 144 h", "result": 3.12},
      {"measurement": "toxicity compared with many other prior art 5-substituted-2'-deoxyuridines that have been tested", "setting": "HT-29 cells; statement in words", "result": "less toxic"},
      {"measurement": "activity at 150 µM", "setting": "[1]; Homo sapiens, HT-29, 72 h, 5-ETH 150 μM alone, no 5-FU (0), read-out: Cloning Efficiency (% of control)", "result": 89, "unit": "%"}
    ]},
    {"molecule": "CCc1cn([C@H]2C[C@H](O)[C@@H](CO)O2)c(=O)[nH]c1=O", "note": "[5-ethyl-2'-deoxyuridine]", "values": [
      {"measurement": "pIC50", "setting": "HT-29 cells; Homo sapiens, 144 h", "result": 5.60}
    ]},
    {"molecule": "COc1cn([C@H]2C[C@H](O)[C@@H](CO)O2)c(=O)[nH]c1=O", "note": "[5-methoxy-21-deoxyuridine]", "values": [
      {"measurement": "pIC50", "setting": "HT-29 cells; Homo sapiens, 144 h", "result": 4.55}
    ]},
    {"molecule": "CCCOc1cn([C@H]2C[C@H](O)[C@@H](CO)O2)c(=O)[nH]c1=O", "note": "[5-propyloxy-2'-deoxyuridine]", "values": [
      {"measurement": "pIC50", "setting": "HT-29 cells; Homo sapiens, 144 h", "result": 3.49}
    ]}
  ]
}
